Results: article PMC8222254, “Self-assembly of an anion receptor with metal-dependent kinase inhibition and potent in vitro anti-cancer properties” (Nature Communications, 2021)
Several values for one entry are separate records, joined by “and”; a condition that tells them apart may be missing. Identical values can stand only once.

Columns and labels:
Assay in all cases: Kinase inhibition screen, cell-free 33P ATP assay at 10 μM
Assay type in all cases: biochemical
[1] = target: T1, 140 purified human kinases (Homo sapiens, UniProt O14757)
T1 sequence (O14757 1-476): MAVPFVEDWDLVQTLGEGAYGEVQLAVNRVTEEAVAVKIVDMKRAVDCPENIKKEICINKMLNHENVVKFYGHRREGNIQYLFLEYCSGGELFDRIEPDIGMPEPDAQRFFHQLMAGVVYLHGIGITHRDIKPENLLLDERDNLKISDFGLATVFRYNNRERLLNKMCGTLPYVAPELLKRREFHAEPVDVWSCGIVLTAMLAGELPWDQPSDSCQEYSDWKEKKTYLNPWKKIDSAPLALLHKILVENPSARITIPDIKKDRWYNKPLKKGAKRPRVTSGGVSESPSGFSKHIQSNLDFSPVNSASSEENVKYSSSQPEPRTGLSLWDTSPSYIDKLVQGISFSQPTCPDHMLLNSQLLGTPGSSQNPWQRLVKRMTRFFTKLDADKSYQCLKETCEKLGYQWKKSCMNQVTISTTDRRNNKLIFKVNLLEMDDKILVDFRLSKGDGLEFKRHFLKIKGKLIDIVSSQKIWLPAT
Outline: (§1)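 Each complex tested in duplicate at 10 μM; cell-free radiometric assay using ^33P ATP on purified enzymes. Hits mapped by HGNC symbol onto the kinome tree.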

[2] = target: 140 purified human kinases (Homo sapiens, UniProt P53355)
Outline: as §1

[3] = target: T2, 140 purified human kinases (Homo sapiens, UniProt Q05513); conditions: PKCz; for % Activity inhibition Mean / % Activity inhibition Run 1 / % Activity inhibition Run 2 / % Activity remaining Run 1 / % Activity remaining Run 2: 10 µM
T2 sequence (Q05513 1-592): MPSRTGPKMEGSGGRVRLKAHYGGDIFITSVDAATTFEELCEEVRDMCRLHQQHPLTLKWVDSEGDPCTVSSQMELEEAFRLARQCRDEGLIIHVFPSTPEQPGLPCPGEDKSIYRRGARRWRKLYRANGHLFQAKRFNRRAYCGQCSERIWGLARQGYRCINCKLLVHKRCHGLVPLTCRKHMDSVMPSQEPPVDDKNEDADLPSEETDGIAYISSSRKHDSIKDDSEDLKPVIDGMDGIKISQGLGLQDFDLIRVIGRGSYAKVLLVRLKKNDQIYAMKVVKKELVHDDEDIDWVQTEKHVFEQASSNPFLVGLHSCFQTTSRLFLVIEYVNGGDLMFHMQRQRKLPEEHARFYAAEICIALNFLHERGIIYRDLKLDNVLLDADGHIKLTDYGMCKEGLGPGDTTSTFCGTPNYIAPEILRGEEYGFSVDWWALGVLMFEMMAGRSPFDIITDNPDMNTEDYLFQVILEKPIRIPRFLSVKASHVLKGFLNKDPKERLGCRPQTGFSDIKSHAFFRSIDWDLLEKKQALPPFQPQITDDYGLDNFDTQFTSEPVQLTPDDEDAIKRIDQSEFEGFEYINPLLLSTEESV
Outline: as §1

[4] = target: 140 purified human kinases (Homo sapiens, UniProt Q14012); conditions: for % Activity inhibition Mean / % Activity inhibition Run 1 / % Activity inhibition Run 2 / % Activity remaining Run 1 / % Activity remaining Run 2: 10 µM
Outline: as §1

[5] = target: 140 purified human kinases (Homo sapiens, UniProt Q96RR4); conditions: CAMKKb
Outline: as §1

Chain of 140 purified human kinases (Homo sapiens, UniProt P53355) (P53355 whole entry): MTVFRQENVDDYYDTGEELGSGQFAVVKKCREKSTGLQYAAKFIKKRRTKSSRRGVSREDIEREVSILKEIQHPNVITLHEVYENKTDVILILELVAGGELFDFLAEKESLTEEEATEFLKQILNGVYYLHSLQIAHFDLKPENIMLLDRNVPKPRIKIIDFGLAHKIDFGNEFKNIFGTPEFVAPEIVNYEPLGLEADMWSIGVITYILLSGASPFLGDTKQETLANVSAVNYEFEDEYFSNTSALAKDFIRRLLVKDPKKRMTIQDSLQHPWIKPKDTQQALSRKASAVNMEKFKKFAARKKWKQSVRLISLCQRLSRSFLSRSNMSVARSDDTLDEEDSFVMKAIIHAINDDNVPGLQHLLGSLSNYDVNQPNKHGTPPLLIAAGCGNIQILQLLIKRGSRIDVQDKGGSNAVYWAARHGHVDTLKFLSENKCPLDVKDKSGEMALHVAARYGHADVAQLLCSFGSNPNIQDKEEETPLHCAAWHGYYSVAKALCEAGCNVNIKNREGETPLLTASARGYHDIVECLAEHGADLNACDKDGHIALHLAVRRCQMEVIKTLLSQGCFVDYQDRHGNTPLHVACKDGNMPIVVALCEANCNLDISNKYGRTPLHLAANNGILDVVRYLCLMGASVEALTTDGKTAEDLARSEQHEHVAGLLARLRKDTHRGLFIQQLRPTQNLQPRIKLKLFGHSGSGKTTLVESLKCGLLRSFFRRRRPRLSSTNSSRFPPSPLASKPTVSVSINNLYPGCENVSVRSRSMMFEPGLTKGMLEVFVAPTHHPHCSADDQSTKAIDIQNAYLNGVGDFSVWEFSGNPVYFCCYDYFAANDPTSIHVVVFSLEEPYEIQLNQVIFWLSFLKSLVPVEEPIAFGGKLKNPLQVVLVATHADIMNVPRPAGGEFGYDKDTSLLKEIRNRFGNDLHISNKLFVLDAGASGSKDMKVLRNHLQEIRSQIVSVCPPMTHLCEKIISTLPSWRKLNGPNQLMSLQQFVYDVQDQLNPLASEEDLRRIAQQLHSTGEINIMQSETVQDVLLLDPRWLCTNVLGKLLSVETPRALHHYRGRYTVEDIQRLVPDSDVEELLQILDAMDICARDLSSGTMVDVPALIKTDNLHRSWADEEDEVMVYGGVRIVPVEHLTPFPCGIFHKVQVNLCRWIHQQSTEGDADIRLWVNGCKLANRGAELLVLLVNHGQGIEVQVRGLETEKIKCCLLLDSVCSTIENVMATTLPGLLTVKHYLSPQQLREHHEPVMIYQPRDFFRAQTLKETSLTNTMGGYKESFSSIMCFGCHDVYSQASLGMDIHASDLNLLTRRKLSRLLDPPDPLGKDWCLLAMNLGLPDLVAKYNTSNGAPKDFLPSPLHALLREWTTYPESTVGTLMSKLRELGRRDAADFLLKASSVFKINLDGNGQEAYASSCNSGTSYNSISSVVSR
Chain of 140 purified human kinases (Homo sapiens, UniProt Q96RR4) (Q96RR4 whole entry): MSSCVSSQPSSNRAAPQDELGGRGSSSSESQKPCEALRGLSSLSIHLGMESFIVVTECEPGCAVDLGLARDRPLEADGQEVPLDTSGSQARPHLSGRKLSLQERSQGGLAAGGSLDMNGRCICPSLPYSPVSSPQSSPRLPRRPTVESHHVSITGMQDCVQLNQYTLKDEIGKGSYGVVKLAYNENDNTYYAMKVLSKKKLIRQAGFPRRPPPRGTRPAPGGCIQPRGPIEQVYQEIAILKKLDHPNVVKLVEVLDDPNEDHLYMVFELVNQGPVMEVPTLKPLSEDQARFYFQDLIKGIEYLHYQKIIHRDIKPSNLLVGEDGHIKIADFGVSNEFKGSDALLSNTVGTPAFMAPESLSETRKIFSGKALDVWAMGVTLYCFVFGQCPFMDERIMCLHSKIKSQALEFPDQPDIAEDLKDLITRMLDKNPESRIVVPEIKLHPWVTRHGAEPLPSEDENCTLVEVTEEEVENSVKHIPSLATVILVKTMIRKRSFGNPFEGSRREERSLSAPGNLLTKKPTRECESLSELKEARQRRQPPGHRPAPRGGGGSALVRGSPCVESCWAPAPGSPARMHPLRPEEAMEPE
Chain of 140 purified human kinases (Homo sapiens, UniProt Q14012) (Q14012 whole entry): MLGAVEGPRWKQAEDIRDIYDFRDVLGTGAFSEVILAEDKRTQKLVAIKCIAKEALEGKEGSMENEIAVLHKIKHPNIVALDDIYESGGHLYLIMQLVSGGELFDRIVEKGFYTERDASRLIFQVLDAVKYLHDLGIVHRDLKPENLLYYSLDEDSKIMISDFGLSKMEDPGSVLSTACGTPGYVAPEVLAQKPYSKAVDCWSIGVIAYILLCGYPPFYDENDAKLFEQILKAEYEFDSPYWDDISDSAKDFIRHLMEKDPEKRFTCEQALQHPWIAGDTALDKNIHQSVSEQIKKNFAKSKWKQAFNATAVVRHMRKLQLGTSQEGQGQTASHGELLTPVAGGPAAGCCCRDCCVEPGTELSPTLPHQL

[Cu+2].[Cu+2].[Cu+2].c1ccc(-c2csc(NCCN(CCNc3nc(-c4ccccn4)cs3)CCNc3nc(-c4ccccn4)cs3)n2)nc1.c1ccc(-c2csc(NCCN(CCNc3nc(-c4ccccn4)cs3)CCNc3nc(-c4ccccn4)cs3)n2)nc1 [[L2Cu3]6+]
% Inhibition Run 1 ([1]; CHK1): 45.6%
% Inhibition Run 2 ([1]; CHK1): 41.5%
% Inhibition, Mean ([1]; CHK1): 44%
mean % activity ([1]; CHK1): 56%
% activity ([1]; CHK1, Run 1): 54.4%
% activity ([1]; CHK1, Run 2): 58.5%
% Activation, Mean value ([2]; DAPK1): 1.5%
% Inhibition Run 1 ([2]; DAPK1): 6.2%
% Inhibition Run 2 ([2]; DAPK1): -9.2%
% Inhibition, Mean ([2]; DAPK1): -1.5%
mean % activity ([2]; DAPK1): 102%
% activity ([2]; DAPK1, Run 1): 93.8%
% activity ([2]; DAPK1, Run 2): 109.2%
% Inhibition Run 1 [3]: 92.5%
% Inhibition Run 2 [3]: 95.1%
% Inhibition, Mean [3]: 94%
mean % activity [3]: 6%
% activity ([3]; Run 1): 7.5%
% activity ([3]; Run 2): 4.9%
% Activity inhibition Mean [3]: 93.8%
% Activity inhibition Run 1 [3]: 92.5%
% Activity inhibition Run 2 [3]: 95.1%
% Activity remaining Run 1 [3]: 7.50%
% Activity remaining Run 2 [3]: 4.90%
% Inhibition Run 1 ([4]; CAMK1): 94.9%
% Inhibition Run 2 ([4]; CAMK1): 96.1%
% Inhibition, Mean ([4]; CAMK1): 96%
mean % activity ([4]; CAMK1): 4.5%
% activity ([4]; CAMK1, Run 1): 5.1%
% activity ([4]; CAMK1, Run 2): 3.9%
% Activity inhibition Mean ([4]; CAMK1): 95.5%
% Activity inhibition Run 1 ([4]; CAMK1): 94.9%
% Activity inhibition Run 2 ([4]; CAMK1): 96.1%
% Activity remaining Run 1 ([4]; CAMK1): 5.10%
% Activity remaining Run 2 ([4]; CAMK1): 3.90%
% Inhibition Run 1 [5]: 42.1%
% Inhibition Run 2 [5]: 54.8%
% Inhibition, Mean [5]: 48%
mean % activity [5]: 52%
% activity ([5]; Run 1): 57.9%
% activity ([5]; Run 2): 45.2%

CC(=O)[O-].CC(=O)[O-].CC(=O)[O-].CC(=O)[O-].CC(=O)[O-].CC(=O)[O-].[Zn+2].[Zn+2].[Zn+2].c1ccc(-c2csc(NCCN(CCNc3nc(-c4ccccn4)cs3)CCNc3nc(-c4ccccn4)cs3)n2)nc1.c1ccc(-c2csc(NCCN(CCNc3nc(-c4ccccn4)cs3)CCNc3nc(-c4ccccn4)cs3)n2)nc1 [[L2Zn3]6+]
% Inhibition, Mean ([1]; CHK1): 17%
% Inhibition, Run 1 / Run 2 ([1]; CHK1): 18% and 16%
mean % activity ([1]; CHK1): 83%
% activity ([1]; CHK1, duplicate runs): 82% and 84%
% Activation, Mean value ([2]; DAPK1): 16%
% Inhibition, Mean ([2]; DAPK1): -16%
% Inhibition, Run 1 / Run 2 ([2]; DAPK1): -12% and -21%
mean % activity ([2]; DAPK1): 116%
% Activity Run 1 ([2]; DAPK1, 10 µM): 112.0%
% Activity Run 2 ([2]; DAPK1, 10 µM): 121.0%
% activity ([2]; DAPK1, duplicate runs): 112% and 121%
% Inhibition, Mean [3]: 88%
% Inhibition, Run 1 / Run 2 [3]: 89% and 87%
mean % activity [3]: 12%
% Activity inhibition Mean [3]: 88.0%
% Activity inhibition Run 1 [3]: 89%
% Activity inhibition Run 2 [3]: 87%
% Activity remaining Run 1 [3]: 11%
% Activity remaining Run 2 [3]: 13%
% activity ([3]; duplicate runs): 11% and 13%
% Inhibition, Mean ([4]; CAMK1): 96%
% Inhibition, Run 1 / Run 2 ([4]; CAMK1): 94% and 98%
mean % activity ([4]; CAMK1): 3.6%
% Activity inhibition Mean ([4]; CAMK1): 96.0%
% Activity inhibition Run 1 ([4]; CAMK1): 94%
% Activity inhibition Run 2 ([4]; CAMK1): 98%
% Activity remaining Run 1 ([4]; CAMK1): 6%
% Activity remaining Run 2 ([4]; CAMK1): 2%
% activity ([4]; CAMK1, duplicate runs): 5.6% and 1.6%
% Inhibition, Mean [5]: 44%
% Inhibition, Run 1 / Run 2 [5]: 44%
mean % activity [5]: 56%
% activity ([5]; duplicate runs): 57% and 56%
